Patent US20250281480A1, “PHARMACEUTICAL DRY POWDER INHALATION FORMULATION” (Bayer Aktiengesellschaft, priority 2021, published 2025)

Test system: soluble guanylyl cyclase
Experiment: Efficacy under experimental conditions of oxidative stress (ODQ, L-NAME treatment)
Format: in vivo

## O=C(O)c1ccc(CCN(CCc2ccccc2OCc2ccc(-c3ccc(C(F)(F)F)cc3)cc2Cl)[C@H]2CCCc3nc(C(=O)O)ccc32)cc1 [Comparative example 11, (5S)-5-{[2-(4-carboxyphenyl)ethyl][2-(2-{[3-chloro-4′-(trifluoromethyl)[biphenyl]-4-yl]methoxy}phenyl)ethyl]amino}-5,6,7,8-tetrahydroquinoline-2-carboxylic Acid]
  efficacy under oxidative stress: enhanced
